Source: patent publication US10076519B2 (CYTOKINETICS, INC., priority 2010, dated 2018)

System: rabbit skeletal myofibrils (fast skeletal myofibrils)
Assay: Activation of fast skeletal myofibrils (PUMA assay, PK/LDH-coupled ATPase at pCa25)
Assay type: biochemical
Conditions: AC1.4 determined according to the procedure of Example 39; reported as class symbols
Method in brief: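 Detergent-washed rabbit psoas myofibrils (~90% fast fibres, calcium-regulated) assayed at calcium giving 25% of maximal ATPase rate (pCa25). ADP turnover coupled via pyruvate kinase/lactate dehydrogenase to NADH oxidation, read at 340 nm. Buffer 12 mM PIPES, 2 mM MgCl2, 1 mM DTT, pH 6.8; AC1.4 values derived.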

| SMILES | Mean AC1.4 |
| --- | --- |
| Cn1ncc2ccc(-c3ccc(NCC(C)(C)c4ccc(F)cc4)nn3)cc21 [[2-(4-fluorophenyl)-2-methylpropyl][6-(1-methyl(1H-indazol-6-yl))pyridazin-3-yl]amine] | B (B=1-10 uM) |
| Cc1ccc(CCNc2ccc(-c3cccc(C(N)=O)c3)nn2)cc1 | C (C=10-20 uM) |
| CC(C)(C)OC(=O)N1CCN(C(=O)c2ccc(NCC(C)(C)c3ccc(F)cc3)nn2)C(CO)C1 (centres unmarked) | D (D=>20 uM) |
| CC(C)(CNc1ccc(-c2ccc3[nH]nc(NCCN)c3c2)nn1)c1ccc(F)cc1 [(6-{3-[(2-aminoethyl)amino](1H-indazol-5-yl)}pyridazin-3-yl)[2-(4-fluorophenyl)-2-methylpropyl]amine] | A (A=<1 uM) |
| NC(=O)c1cccc(-c2ccc(NCCc3ccccc3Cl)nn2)c1 | B (B=1-10 uM) |
| Cc1nc2cc(-c3ccc(NCC(C)(C)c4ccc(F)cc4)nn3)ccc2o1 [[2-(4-fluorophenyl)-2-methylpropyl][6-(2-methylbenzoxazol-5-yl)pyridazin-3-yl]amine] | B (B=1-10 uM) |
| COc1cccc(C2(CNc3ccc(-c4ccc5cn[nH]c5c4)nn3)CCC2)n1 [(6-(1H-indazol-6-yl)pyridazin-3-yl){[(6-methoxy(2-pyridyl))cyclobutyl]methyl}amine] | A (A=<1 uM) |
| CC(C)(CNc1ccc(-c2ccc3cn[nH]c3c2)nn1)c1ccc(F)cc1 [(6-(1H-indazol-6-yl)pyridazin-3-yl)[2-(4-fluorophenyl)-2-methylpropyl]amine] | A (A=<1 uM) |
| CC(CNc1ccc(-c2cccc(C(N)=O)c2)nn1)N1CCCCC1=O (centres unmarked) | D (D=>20 uM) |
| Nc1n[nH]c2ccc(-c3ccc(NCC4(c5ccccc5)CCC4)nn3)cc12 | A (A=<1 uM) |
| N#Cc1ccnc(C2(CNc3ccc(-c4cccc(C(N)=O)c4)nn3)CCC2)c1 | B (B=1-10 uM) |
| CC(C)(CNc1ccc(-c2cccnc2)nn1)c1ccccc1Cl [[2-(2-chlorophenyl)-2-methylpropyl](6-(3-pyridyl)pyridazin-3-yl)amine] | B (B=1-10 uM) |
| CC(C)(C)CCNc1ccc(-c2cccc(C(N)=O)c2)nn1 [3-{6-[(3,3-dimethylbutyl)amino]pyridazin-3-yl}benzamide] | D (D=>20 uM) |
| Cn1nc(N)c2cc(-c3ccc(NCC(C)(C)c4ccc(F)cc4)nn3)ccc21 [[6-(3-amino-1-methyl(1H-indazol-5-yl))pyridazin-3-yl][2-(4-fluorophenyl)-2-methylpropyl]amine] | B (B=1-10 uM) |
| NC(=O)c1ccc(-c2ccc(NCC3(c4ncccc4F)CCC3)nn2)c(F)c1 | B (B=1-10 uM) |

Same assay, conditions: median AC1.4 class, procedure of Example 39

| SMILES | Mean AC1.4 |
| --- | --- |
| NC(=O)c1ccc(F)c(-c2ccc(NC3(c4ccc(F)cc4)CCC3)nn2)c1 | A (A=<1 uM) |
| O=C(NC1CCNC1)c1cnc(-c2ccc(NCC3(c4ncccc4F)CCC3)nn2)s1 (centres unmarked) [{2-[6-({[(3-fluoro(2-pyridyl))cyclobutyl]methyl}ami-no)pyridazin-3-yl](1,3-thiazol-5-yl)}-N-pyrrolidin-3-ylcarboxamide] | A (A=<1 uM) |
| CNC(=O)Nc1cccc(-c2ccc(NCC3(c4ncccc4F)CCC3)nn2)c1 | A (A=<1 uM) |
| NC(=O)c1ccc(F)c(-c2ccc(NC3(c4ccc(O)cn4)CCC3)nn2)c1 | D (D=>20 uM) |
| Nc1n[nH]c2ccc(-c3ccc(NC[C@]4(c5ncccc5F)C[C@H](F)C4)nn3)cc12 [[6-(3-amino(1H-indazol-5-yl))pyridazin-3-yl]{[3-fluoro-1-(3-fluoro(2-pyridyl))cyclobutyl]methyl}amine] | A (A=<1 uM) |
| CC(C)(O)c1cnc(-c2ccc(NCC3(c4ncccc4F)CCC3)nn2)s1 [2-{2-[6-({[(3-fluoro-2-pyridyl)cyclobutyl]methyl}ami-no)pyridazin-3-yl]-1,3-thiazol-5-yl}propan-2-ol] | C (C=10-20 uM) |
| NC1(c2cnc(-c3ccc(NCC4(c5ncccc5F)CCC4)nn3)s2)COC1 [{6-[5-(3-aminooxetan-3-yl)(1,3-thiazol-2-yl)]pyridazin-3-yl}{[(3-fluoro(2-pyridyl))cyclobutyl]methyl}amine] | D (D=>20 uM) |
| NC(=O)c1ccc(F)c(-c2ccc(NC3(c4ncccc4OC(F)F)CCC3)nn2)c1 | C (C=10-20 uM) |
| COC(=O)NCc1cnc(-c2ccc(NCC3(c4ncccc4F)CCC3)nn2)s1 [N-({2-[6-({[(3-fluoro(2-pyridyl))cyclobutyl]methyl}ami-no)pyridazin-3-yl](1,3-thiazol-5-yl)}methyl)methoxycarboxamide] | B (B=1-10 uM) |
| OC(c1cnc(-c2ccc(NCC3(c4ncccc4F)CCC3)nn2)s1)C(F)(F)F (centres unmarked) [2,2,2-trifluoro-1-{2-[6-({[(3-fluoro(2-pyridyl))cyclobutyl]methyl}ami-no)pyridazin-3-yl](1,3-thiazol-5-yl)}ethan-1-ol] | B (B=1-10 uM) |
| O=c1[nH]nc(-c2cccc(-c3ccc(NCC4(c5ncccc5F)CCC4)nn3)c2)[nH]1 [3-{3-[6-({[(3-fluoro-2-pyridyl)cyclobutyl]methyl}ami-no)pyridazin-3-yl]phenyl}-1,2,4-triazolin-5-one] | B (B=1-10 uM) |
| Fc1cccnc1C1(CNc2ccc(C3=CCCCC3)nn2)CCC1 [(6-cyclohex-1-enylpyridazin-3-yl){[(3-fluoro(2-pyridyl))cyclobutyl]methyl}amine] | A (A=<1 uM) |
| NC(=O)c1ccc(F)c(-c2ccc(NC3(c4cccc(C(N)=O)n4)CCC3)nn2)c1 [6-({[6-(3-carbamoyl-6-fluorophenyl)pyridazin-3-yl]amino}cyclobutyl)pyridine-2-carboxamide] | D (D=>20 uM) |
| CC(C)(Nc1ccc(-c2cc(C(N)=O)ccc2F)nn1)c1ncccc1Cl [3-(6-{[1-(3-chloro(2-pyridyl))-isopropyl]amino}pyridazin-3-yl)-4-fluorobenzamide] | B (B=1-10 uM) |
| NC(=O)c1csc2nc(-c3ccc(NC[C@]4(c5ncccc5F)C[C@H](F)C4)nn3)cn12 [6-[6-({[3-fluoro-1-(3-fluoro(2-pyridyl))cyclobutyl]methyl}ami-no)pyridazin-3-yl]imidazo[2,1-b]1,3-thiazoline-3-carboxamide] | A (A=<1 uM) |
| Fc1cccnc1C1(CNc2ccc(-c3nc4ccc(Cl)nc4s3)nn2)CCC1 [[6-(5-chloro(1,3-thiazolino[5,4-b]pyridin-2-yl))pyridazin-3-yl]{[(3-fluoro(2-pyridyl))cyclobutyl]methyl}amine] | C (C=10-20 uM) |
| Cc1cc(-c2ccc(NC3(c4ccc(F)cc4)CCC3)nn2)ccn1 [[(4-fluorophenyl)cyclobutyl][6-(2-methyl(4-pyridyl))pyridazin-3-yl]amine] | B (B=1-10 uM) |
| NC(=O)c1cccc(-c2ccc(NC3(c4ncccc4F)CCC3)nn2)c1 | B (B=1-10 uM) |
| O=c1[nH]nc(-c2ccc(F)c(-c3ccc(NCC4(c5ncccc5F)CCC4)nn3)c2)[nH]1 [3-{4-fluoro-3-[6-({[(3-fluoro(2-pyridyl))cyclobutyl]methyl}ami-no)pyridazin-3-yl]phenyl}-1,2,4-triazolin-5-one] | A (A=<1 uM) |
| c1ccc(-c2ccc(NC3(c4ccccc4)CCC3)nn2)cc1 [(phenylcyclobutyl)(6-phenylpyridazin-3-yl)amine] | B (B=1-10 uM) |

Same assay, conditions: median AC1.4 reported as class; procedure of Example 39

| SMILES | Mean AC1.4 |
| --- | --- |
| CC(C)(N)C(=O)NCc1cnc(-c2ccc(NCC(C)(C)c3ncccc3Cl)nn2)s1 [2-amino-N-{[2-(6-{[2-(3-chloro(2-pyridyl))-2-methylpropyl]amino}pyridazin-3-yl)(1,3-thiazol-5-yl)]methyl}-2-methylpropanamide] | A (A=<1 uM) |
| C[C@H](N)C(=O)OCC(=O)NCc1cnc(-c2ccc(NCC3(c4ncccc4F)CCC3)nn2)s1 [[N-({2-[6-({[(3-fluoro-2-pyridyl)cyclobutyl]methyl}ami-no)pyridazin-3-yl]-1,3-thiazol-5-yl}methyl)carbamoyl]methyl (2S)-2-aminopropanoate] | A (A=<1 uM) |
| CCNC(=O)c1cc(-c2ccc(NC[C@]3(c4ncccc4F)C[C@H](F)C3)nn2)ccc1F [N-ethyl{2-fluoro-5-[6-({[3-fluoro-1-(3-fluoro(2-pyridyl))cyclobutyl]methyl}ami-no)pyridazin-3-yl]phenyl}carboxamide] | C (C=10-20 uM) |
| CN1CC(NC(=O)c2ccc(F)c(-c3ccc(NC[C@]4(c5ncccc5F)C[C@H](F)C4)nn3)c2)C1 [{4-fluoro-3-[6-({[3-fluoro-1-(3-fluoro(2-pyridyl))cyclobutyl]methyl}ami-no)pyridazin-3-yl]phenyl}-N-(1-methylazetidin-3-yl)carboxamide] | B (B=1-10 uM) |
| CNC(=O)c1cccc(-c2ccc(NC[C@]3(c4ncccc4F)C[C@H](F)C3)nn2)c1 [{3-[6-({[3-fluoro-1-(3-fluoro(2-pyridyl))cyclobutyl]methyl}ami-no)pyridazin-3-yl]phenyl}-N-methylcarboxamide] | A (A=<1 uM) |
| CCOC(=O)c1nc(NC(=O)c2ccc(NCC3(c4ncccc4F)CCC3)nn2)cn1C [ethyl 4-{[6-({[(3-fluoro(2-pyridyl))cyclobutyl]methyl}ami-no)pyridazin-3-yl]carbonylamino}-1-methylimidazole-2-carboxylate] | D (D=>20 uM) |
| NC(=O)C1CCc2sc(-c3ccc(NCC4(c5ncccc5F)CCC4)nn3)nc21 (centres unmarked) [2-[6-({[(3-fluoro-2-pyridyl)cyclobutyl]methyl}ami-no)pyridazin-3-yl]-4,5,6-trihydrocyclopenta[1,2-d]1,3-thiazole-4-carboxamide] | D (D=>20 uM) |
| O=C(O)Cc1cnc(-c2ccc(NC[C@]3(c4ncccc4F)C[C@H](F)C3)nn2)s1 [2-{2-[6-({[3-fluoro-1-(3-fluoro(2-pyridyl))cyclobutyl]methyl}ami-no)pyridazin-3-yl]-1,3-thiazol-5-yl}acetic acid] | B (B=1-10 uM) |
| OCCNCc1cnc(-c2ccc(NCC3(c4ncccc4F)CCC3)nn2)s1 [2-[({2-[6-({[(3-fluoro-2-pyridyl)cyclobutyl]methyl}ami-no)pyridazin-3-yl]-1,3-thiazol-5-yl}methyl)amino]ethan-1-ol] | B (B=1-10 uM) |
